Legend:
kynurenine 3-hydroxylase = target: T1, kynurenine 3-hydroxylase (Rattus norvegicus, UniProt O88867); assay: Inhibitory activity on kynurenine 3-hydroxylase in rat liver homogenate; assay type: biochemical; conditions: mean of two experiments, read-out: IC50, kynurenine 3-hydroxylase inhibition
T1 construct: from tissue; host or cells: rat liver homogenate (12000 rpm pellet, resuspended)
Protocol: Study of the Inhibitory Activity on Kynurenine 3-Hydroxylase in Rat Liver
Rat livers are homogenised (1:8 weight/volume) in a buffer solution comprising: 0.25 M sucrose; 50 mM pH 7.4 Tris; 1 mM EDTA; and 1 mM DTT.
The homogenates are centrifuged for 10 minutes at 12000 rpm. The pellets are resuspended in the buffer solution described above (1:2 weight/volume).
The kynurenine 3-hydroxylase inhibition is determined by incubating 10 μL of the homogenate with NADPH (2 mM), kynurenine (100 μM) and various concentrations of the test compounds in a final volume of 100 μL at 37° C. for 5 minutes.
The compounds are tested at concentrations of between 1 μM and 300 μM. 3,4-Dimethoxy-N-[4-(3-nitrophenyl)thiazol-2-yl]benzenesulfonamide is a compound from the company Hoffmann-LaRoche (Basle, see J. Med. Chem., 40 (1997), 4738). 30H-Kynurenine was tested according to the protocol described by Carpendo et al. (Neuroscience, 61 (1994), 237-244).
Each of the experiments is repeated once and the IC50 values (in μmol/L) are calculated and given in the form of a mean of these two experiments.
Results concerning representative examples of family Ih are given in Table II below, in which is indicated the measurement of the percentage of remaining kynurenine 3-hydroxylase activity relative to the control (100%).

[1] = test system: perfused isolated pancreases from N0 STZ diabetic rats; assay: Secretion of insulin and glucagon in perfused isolated pancreases from N0 STZ diabetic rats; assay type: cell-based; conditions: perfused diabetic rat pancreas; absence of glucose, then 16.5 mM glucose; glucose-dependent
Text: The results are expressed as the mean ±SEM (standard error of mean) of several experiments. The statistical test used is the Scheffé test.

hepatocytes = assay: Hepatic glucose production in vitro in isolated hepatocytes (Table IV); assay type: cell-based, Wistar rats; conditions: Rattus norvegicus, Hepatocyte
Protocol: The following two methods were used:
1) The hepatocytes are cultured for 16 to 18 hours in DMEM medium in the presence of AMP cyclase/dexamethasone at respective concentrations of 5×10^−5 M and 5×10^−7 M, with preincubation of the products at the test doses. After washing in pH 7.4 PBS buffer, the cells are incubated for three hours at 37° C. in a Krebs/AMPc/DEX buffer at the abovementioned concentrations. 0.1 μM insulin is used as reference substance. Two identical experiments are performed (Table III-1).
After washing in pH 7.4 PBS buffer, the cells are incubated for two hours at 37° C. in a Krebs buffer free of glucose and of insulin, containing lactate/pyruvate (10/1 mM) in the presence or absence of the test compounds. 10 μM MICA (5-methoxyindole-2-carboxylic acid) is used as reference substance. Two identical experiments are performed (Table III-2).
The protein assay is performed on the rest of the incubation medium via the Lowry method (BIO-RAD Dc protein assay, BIO-RAD 5000116).
The results are expressed as nmoles of glucose produced per […] of proteins. The statistical test used is the t test.

T1 sequence (O88867 whole entry): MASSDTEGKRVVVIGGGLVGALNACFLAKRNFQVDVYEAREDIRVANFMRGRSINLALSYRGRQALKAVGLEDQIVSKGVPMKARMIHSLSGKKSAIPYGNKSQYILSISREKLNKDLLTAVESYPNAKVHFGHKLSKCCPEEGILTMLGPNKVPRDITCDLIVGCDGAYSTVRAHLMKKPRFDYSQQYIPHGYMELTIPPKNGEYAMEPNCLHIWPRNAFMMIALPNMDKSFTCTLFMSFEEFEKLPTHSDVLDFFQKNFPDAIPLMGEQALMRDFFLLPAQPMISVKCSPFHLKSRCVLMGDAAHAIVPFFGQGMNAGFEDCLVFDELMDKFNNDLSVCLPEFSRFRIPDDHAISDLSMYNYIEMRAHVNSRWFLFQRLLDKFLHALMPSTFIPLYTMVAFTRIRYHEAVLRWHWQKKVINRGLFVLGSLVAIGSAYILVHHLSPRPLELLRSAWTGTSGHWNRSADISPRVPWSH

SMILES: COc1ccc(S(=O)(=O)Nc2nc(-c3cccc([N+](=O)[O-])c3)cs2)cc1OC [Compound k, 3,4-dimethoxy-N-[4-(3-nitrophenyl)thiazol-2-yl]benzenesulfonamide]
- IC50 (kynurenine 3-hydroxylase): 10 ± 2.1 µM
- glucagon secretion (in words) [1]: stimulation
- insulin secretion (in words) [1]: stimulation
- inhibition at 10 µM (hepatocytes; 10 μM): 0%
- inhibition at 100 µM (hepatocytes; 100 μM): 22%
